The source of these data is US20250171420A1 (Monte Rosa Therapeutics, Inc., priority 2022, published 2025).

Read-outs that look alike come from different tables or passages of the source.

In one assay the test system is GP2D cell line. In words: Growth inhibition, CyQUANT Direct Cell Proliferation Assay, GP2D. It counts as cell-based. Here is the method: (§1) SKCO1, LS180, and LS174T cell lines were purchased from ATCC. CW2 cell line was purchased from Riken. GP2D cell line was purchased from Sigma/ECACC. All cell lines were cultured in manufacturer's recommended media at 37° C., 5% CO2. Briefly, cells were suspended in 200 μL of media and seeded at 300 to 1,800 cells per well in tissue culture treated 96-well plates with black walls and clear bottom. Plates were incubated overnight and initial (To) read was performed the following day using CyQUANT Direct Cell Proliferation Assay Kit (Thermo Fisher Scientific) according to manufacturer's protocol. All compounds were solubilized in DMSO and prepared at 3-fold serial dilution, using 9 points starting at 30 μM as highest concentration, administered to cells and incubated for 120 to 168 hours, at which point CyQUANT assay measurement was performed using Acumen Cellista instrument (Ex/Em 480/520 nm). Media-only wells were used as blank, and 0.3% DMSO was used as DMSO-treated cell control. Growth inhibition (percent response) was calculated using the following formula in Excel: “=if ([Compound treated Day N]>[Untreated Day 0, AVG], ([Compound treated Day N]−[Untreated Day 0, AVG])/([Untreated Day N]−[Untreated Day 0, AVG])*100, ([Compound Treated Day N]−[Untreated Day 0, AVG])/([Untreated Day 0, AVG])*100)”. GI50 is the response corresponding to the 50% of untreated control.
(§2) GI50 data are reported in Tables 4a, 4b, 4c, 4d, and 4e for compounds in Table 1. In Tables 4a, 4b, 4c, 4d, and 4e below, According to the code, A represents a GI50 value of ≤0.1 μM, B represents a GI50 value>0.1 μM and ≤1 μM, C represents an GI50 value>1 μM.

The next assay deals with CW2 cell line. Description: Growth inhibition, CyQUANT Direct Cell Proliferation Assay, CW2. As to conditions: Homo sapiens. The format is cell-based. Here is the method:
as §1, §2

The next assay relates to LS180 cell line. In words: Growth inhibition, CyQUANT Direct Cell Proliferation Assay, LS180. As to conditions: Homo sapiens. It counts as cell-based. How it is done: as §1, §2
The next assay concerns the target T1, CK1α (Homo sapiens, UniProt P48729).
T1 construct: HEK293 clonal lines with CRISPR KI HiBiT tag on CSNK1A1
In words: CK1α NanoBit Assay (HiBiT-tagged CSNK1A1, HEK293 clonal lines). It counts as cell-based. As to conditions: HEK293 HiBiT-CSNK1A1/LgBiT cells, 24 h incubation. The gist of the method: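 HEK293 clones carrying a CRISPR knock-in HiBiT tag on CSNK1A1 and stably expressing LgBiT are treated with compound for 24 hours at 37° C, 5% CO2, then read by luminescence. Response is normalized as 100*(S−N)/(P−N) against plate negative and positive controls, and DC50 values are derived.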

The next assay concerns the target CRBN/DDB1 (Homo sapiens, UniProt Q96SW2). In words: HTRF binding assay (displacement of Cy5-thalidomide probe from CRBN/DDB1). As to conditions: CRBN/DDB1 2.5 nM, Cy5-Thalidomide 100 nM, 30 min; geometric mean; read-out: HTRF_Thali_Disp_DR_geo_IC50. The gist of the method:
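HTRF displacement of Cy5-thalidomide (100 nM) from His-tagged CRBN/DDB1 (2.5 nM) with anti-His Tb cryptate in 20 mM HEPES, 20 mM NaCl, 0.2 mM TCEP, 0.2 mM EDTA, 0.005% Tween20. 10-point 1:3 series, 30 min ambient. 665/620 nm ratio fitted 4-parameter for IC50; Ki by Cheng-Prusoff from geometric-mean IC50.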

The subject of a further assay is SKCO1 cell line. Description: Growth inhibition, CyQUANT Direct Cell Proliferation Assay, SKCO1. It counts as cell-based. As to conditions: Homo sapiens. Here is the method: as §1, §2
A further assay has as its system LS174T cell line. In words: Growth inhibition, CyQUANT Direct Cell Proliferation Assay, LS174T. The format is cell-based. As to conditions: Homo sapiens. How it is done:
as §1, §2

Setting [1] is: GP2D, 120 to 168 hours, read-out: GP2D GI50.
[2] abbreviates: CW-2, CW2, 120 to 168 hours, read-out: CW2 GI50.
The mark [3] stands for this setting: LS180, 120 to 168 hours, read-out: LS180 GI50.
[4] abbreviates: SK-CO-1, SKCO1, 120 to 168 hours, read-out: SKCO1 GI50.
[5] abbreviates: 120 to 168 hours, read-out: LS174T GI50.
[6] abbreviates: LS180, read-out: LS180 GI50 (μM).
[7] abbreviates: SK-CO-1, read-out: SKCO1 GI50 (μM).

T1 sequence (P48729 whole entry): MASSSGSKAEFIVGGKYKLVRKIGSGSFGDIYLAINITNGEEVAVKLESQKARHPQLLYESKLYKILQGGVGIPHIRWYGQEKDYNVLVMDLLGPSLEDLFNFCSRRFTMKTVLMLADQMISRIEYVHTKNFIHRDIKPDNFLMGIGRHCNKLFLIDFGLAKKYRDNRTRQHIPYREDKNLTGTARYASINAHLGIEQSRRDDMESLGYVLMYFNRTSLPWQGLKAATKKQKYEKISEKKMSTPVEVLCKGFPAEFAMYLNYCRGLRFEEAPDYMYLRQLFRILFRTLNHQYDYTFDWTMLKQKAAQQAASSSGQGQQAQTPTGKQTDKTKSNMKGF
T1 sequence (Q96SW2 whole entry, further chain): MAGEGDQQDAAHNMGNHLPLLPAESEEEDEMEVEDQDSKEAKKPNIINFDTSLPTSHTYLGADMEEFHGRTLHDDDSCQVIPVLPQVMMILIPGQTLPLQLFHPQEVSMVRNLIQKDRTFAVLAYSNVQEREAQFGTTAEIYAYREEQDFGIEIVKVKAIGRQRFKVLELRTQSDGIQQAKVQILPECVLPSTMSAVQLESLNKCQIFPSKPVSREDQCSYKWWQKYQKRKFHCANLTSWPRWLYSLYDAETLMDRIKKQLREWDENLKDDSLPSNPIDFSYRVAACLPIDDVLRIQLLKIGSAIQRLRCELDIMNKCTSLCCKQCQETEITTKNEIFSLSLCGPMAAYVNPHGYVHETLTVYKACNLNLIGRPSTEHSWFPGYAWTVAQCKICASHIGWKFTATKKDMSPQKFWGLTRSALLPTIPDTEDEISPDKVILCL
T1 sequence (Q16531 2-1140 partner limits assumed): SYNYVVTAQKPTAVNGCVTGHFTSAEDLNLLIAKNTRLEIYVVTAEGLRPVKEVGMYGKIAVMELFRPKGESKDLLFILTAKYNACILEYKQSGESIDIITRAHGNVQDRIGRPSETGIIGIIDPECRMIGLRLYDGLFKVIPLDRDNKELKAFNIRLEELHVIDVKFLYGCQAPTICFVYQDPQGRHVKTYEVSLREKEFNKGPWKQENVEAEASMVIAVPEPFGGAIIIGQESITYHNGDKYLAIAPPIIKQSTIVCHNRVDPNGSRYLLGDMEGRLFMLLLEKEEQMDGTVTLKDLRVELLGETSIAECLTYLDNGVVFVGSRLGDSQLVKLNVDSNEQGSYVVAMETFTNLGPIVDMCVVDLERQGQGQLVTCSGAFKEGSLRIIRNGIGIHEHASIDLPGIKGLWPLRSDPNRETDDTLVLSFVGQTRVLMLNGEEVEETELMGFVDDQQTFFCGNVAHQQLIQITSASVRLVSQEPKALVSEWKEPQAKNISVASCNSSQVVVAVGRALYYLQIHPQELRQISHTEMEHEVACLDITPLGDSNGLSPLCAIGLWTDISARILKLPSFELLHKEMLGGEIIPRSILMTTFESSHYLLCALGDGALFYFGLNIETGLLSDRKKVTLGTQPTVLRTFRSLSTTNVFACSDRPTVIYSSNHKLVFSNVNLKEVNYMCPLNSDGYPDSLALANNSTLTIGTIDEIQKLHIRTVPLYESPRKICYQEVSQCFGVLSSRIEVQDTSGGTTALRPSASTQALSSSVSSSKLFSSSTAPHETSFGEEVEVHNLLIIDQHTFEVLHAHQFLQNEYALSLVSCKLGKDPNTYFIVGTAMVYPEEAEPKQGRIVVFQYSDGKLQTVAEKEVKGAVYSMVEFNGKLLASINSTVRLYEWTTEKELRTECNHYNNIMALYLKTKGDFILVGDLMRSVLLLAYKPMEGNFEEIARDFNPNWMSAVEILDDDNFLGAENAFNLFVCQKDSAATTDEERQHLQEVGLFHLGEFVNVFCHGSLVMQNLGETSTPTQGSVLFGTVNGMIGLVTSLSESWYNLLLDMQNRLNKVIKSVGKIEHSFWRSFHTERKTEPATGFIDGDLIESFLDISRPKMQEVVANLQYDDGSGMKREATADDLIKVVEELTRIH
CRBN/DDB1, sequence (Q96SW2 whole entry, species assumed): as the sequence (Q96SW2 whole entry, further chain) above
CRBN/DDB1, sequence (Q16531 whole entry partner, species assumed): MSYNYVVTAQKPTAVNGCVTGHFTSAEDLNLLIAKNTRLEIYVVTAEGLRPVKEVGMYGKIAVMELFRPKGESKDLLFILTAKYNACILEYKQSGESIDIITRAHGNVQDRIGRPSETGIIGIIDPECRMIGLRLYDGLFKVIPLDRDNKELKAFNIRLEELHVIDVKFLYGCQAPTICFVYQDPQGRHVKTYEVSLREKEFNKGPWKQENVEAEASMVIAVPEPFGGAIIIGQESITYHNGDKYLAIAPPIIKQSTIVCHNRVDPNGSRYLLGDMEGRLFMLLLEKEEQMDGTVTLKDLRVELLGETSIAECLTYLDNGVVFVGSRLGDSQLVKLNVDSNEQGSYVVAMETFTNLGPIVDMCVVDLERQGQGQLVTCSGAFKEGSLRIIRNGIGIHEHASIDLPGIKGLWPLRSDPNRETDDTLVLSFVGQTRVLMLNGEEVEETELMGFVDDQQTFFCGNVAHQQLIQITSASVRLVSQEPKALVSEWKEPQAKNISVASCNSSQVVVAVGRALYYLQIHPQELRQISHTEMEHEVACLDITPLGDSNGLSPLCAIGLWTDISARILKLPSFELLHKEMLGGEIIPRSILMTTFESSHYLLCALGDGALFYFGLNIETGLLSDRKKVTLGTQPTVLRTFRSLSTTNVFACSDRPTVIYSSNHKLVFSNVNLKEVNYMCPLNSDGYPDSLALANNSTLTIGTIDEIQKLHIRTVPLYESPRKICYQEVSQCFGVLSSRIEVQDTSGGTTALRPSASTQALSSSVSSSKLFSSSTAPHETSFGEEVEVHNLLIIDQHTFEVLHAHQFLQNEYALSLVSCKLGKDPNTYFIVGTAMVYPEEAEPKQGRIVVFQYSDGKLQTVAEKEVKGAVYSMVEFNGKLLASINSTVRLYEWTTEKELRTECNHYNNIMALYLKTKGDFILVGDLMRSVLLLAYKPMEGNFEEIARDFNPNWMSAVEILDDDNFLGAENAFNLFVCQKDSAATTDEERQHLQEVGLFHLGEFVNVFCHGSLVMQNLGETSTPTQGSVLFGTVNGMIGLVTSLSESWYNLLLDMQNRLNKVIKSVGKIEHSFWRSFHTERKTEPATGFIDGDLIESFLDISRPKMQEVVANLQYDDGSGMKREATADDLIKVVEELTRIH

A word on the GI50: it is the concentration that inhibits growth by half. Consider `C[C@H]1Cc2ccccc2N1C(=O)Nc1ccc2c(c1)CN(C1CCC(=O)NC1=O)C2=O` (stereo partly drawn) [Compound 101, (2S)—N-(2-(2,6-dioxopiperidin-3-yl)-1-oxoisoindolin-5-yl)-2-methylindoline-1-carboxamide], for which the GI50 with GP2D cell line (setting [1]), with CW2 cell line (setting [2]), in the assay with LS180 cell line (setting [3]), with SKCO1 cell line (setting [4]) and with LS174T cell line (setting [5]) was less than 0.1 µM throughout. The compound also gave a DC50 at CK1α of less than 0.1 µM. Besides, on CRBN/DDB1, the IC50 is 100 to 1000 nM.

Take `COC[C@H]1CN(C(=O)Nc2ccc3c(c2)CN(C2CCC(=O)NC2=O)C3=O)c2cccc(C(F)(F)F)c21` (stereo partly drawn) [Compound 329, (3R)—N-(2-(2,6-dioxopiperidin-3-yl)-1-oxoisoindolin-5-yl)-3-(methoxymethyl)-4-(trifluoromethyl)indoline-1-carboxamide]: the GI50 in the assay with GP2D cell line (setting [1]) was 0.1 to 1 µM; with CW2 cell line (setting [2]), 0.1 to 1 µM; in the assay with LS180 cell line (setting [3]), 0.1 to 1 µM; with SKCO1 cell line (setting [4]), less than 0.1 µM; in the assay with LS174T cell line (setting [5]), 0.1 to 1 µM. This compound had a DC50 at CK1α of less than 0.1 µM. Moreover, the IC50 at CRBN/DDB1 fell in the range of 100 to 1000 nM.

Take `CC1(c2ccc3c(c2)CCN3C(=O)Nc2ccc3c(c2)CN(C2CCC(=O)NC2=O)C3=O)CC1` (stereo not shown) [Compound 344, N-(2-(2,6-dioxopiperidin-3-yl)-1-oxoisoindolin-5-yl)-5-(1-methylcyclopropyl)indoline-1-carboxamide]: the GI50 is less than 0.1 µM with GP2D cell line (setting [1]); less than 0.1 µM with CW2 cell line (setting [2]); 0.1 to 1 µM in the assay on LS180 cell line (setting [3]); less than 0.1 µM in the assay on SKCO1 cell line (setting [4]); 0.1 to 1 µM in the assay with LS174T cell line (setting [5]). On CK1α, the DC50 is less than 0.1 µM. For the same compound, on CRBN/DDB1, the IC50 fell in the range of 100 to 1000 nM.

Consider `O=C1CCC(N2Cc3cc(NC(=O)N4CC5(CC5)c5ccccc54)ccc3C2=O)C(=O)N1` (stereo not shown) [Compound 210, N-(2-(2,6-dioxopiperidin-3-yl)-1-oxoisoindolin-5-yl)spiro[cyclopropane-1,3′-indoline]-1′-carboxamide], for which the GI50 with GP2D cell line (GP2d, read-out: GP2D GI50 (μM)) is less than 0.1 µM; in the assay with CW2 cell line (CW-2, read-out: CW2 GI50 (μM)) it was less than 0.1 µM; in the assay with LS180 cell line (setting [6]) it was 0.1 to 1 µM; in the assay on SKCO1 cell line (setting [7]), less than 0.1 µM; in the assay with LS174T cell line (read-out: LS174T GI50 (μM)) it was less than 0.1 µM. The same compound yielded a DC50 on CK1α of less than 0.1 µM. Further, on CRBN/DDB1, the IC50 lay in the range of 100 to 1000 nM.

As to `O=C1CCC(N2Cc3cc(NC(=O)N4CCc5ccc(Cl)cc54)ccc3C2=O)C(=O)N1` (stereo not shown) [Compound 137, 6-chloro-N-(2-(2,6-dioxopiperidin-3-yl)-1-oxoisoindolin-5-yl)indoline-1-carboxamide], the GI50 with GP2D cell line (GP2d, read-out: GP2D GI50 (μM)) was 0.1 to 1 µM; in the assay with CW2 cell line (CW-2, read-out: CW2 GI50 (μM)), less than 0.1 µM; in the assay with LS180 cell line (setting [6]), 0.1 to 1 µM; in the assay with SKCO1 cell line (setting [7]), 0.1 to 1 µM; with LS174T cell line (read-out: LS174T GI50 (μM)), 0.1 to 1 µM. The DC50 on CK1α was less than 0.1 µM. The IC50 on CRBN/DDB1 was in the range of 100 to 1000 nM.

Take `O=C1CCC(N2Cc3cc(NC(=O)N4CCc5cc(C(F)(F)F)ncc54)ccc3C2=O)C(=O)N1` (stereo not shown) [Compound 287, N-(2-(2,6-dioxopiperidin-3-yl)-1-oxoisoindolin-5-yl)-5-(trifluoromethyl)-2,3-dihydro-1H-pyrrolo[2,3-c]pyridine-1-carboxamide]: the 50% growth inhibitory concentration (GI50) is less than 0.1 µM in the assay on GP2D cell line (GP2d, read-out: GP2D GI50 (μM)); less than 0.1 µM in the assay on CW2 cell line (CW-2, read-out: CW2 GI50 (μM)); 0.1 to 1 µM with LS180 cell line (setting [6]); less than 0.1 µM in the assay on SKCO1 cell line (setting [7]); less than 0.1 µM in the assay on LS174T cell line (read-out: LS174T GI50 (μM)). For the same compound, the DC50 at CK1α was less than 0.1 µM. For the same compound, at CRBN/DDB1, the IC50 fell in the range of 100 to 1000 nM.

Regarding `O=C1CCC(N2Cc3cc(NC(=O)N4Cc5ccccc5C4)ccc3C2=O)C(=O)N1` (stereo not shown) [Compound 106, N-(2-(2,6-dioxopiperidin-3-yl)-1-oxoisoindolin-5-yl)isoindoline-2-carboxamide], the GI50 in the assay with GP2D cell line (setting [1]) is 0.1 to 1 µM; in the assay with CW2 cell line (setting [2]) it was 0.1 to 1 µM; with LS180 cell line (setting [3]), greater than 1 µM; in the assay on SKCO1 cell line (setting [4]), 0.1 to 1 µM; in the assay with LS174T cell line (setting [5]) it was greater than 1 µM. For the same compound, the DC50 on CK1α is less than 0.1 µM. For the same compound, the IC50 at CRBN/DDB1 lay in the range of 100 to 1000 nM.
